# Assay results taken from US10202413B2, “Neuroactive enantiomeric 15-, 16- and 17-substituted steroids as modulators for GABA type-A receptors” (priority 2013, dated 2019).
# Like-named read-outs stand apart in the source and are kept apart here. Marks after values point to notes of the source that are not given here.
# What was measured:
# [1] = molecular target: picrotoxin binding site on GABAA receptors; assay: [35S]-TBPS displacement (inhibition of [35S]-TBPS binding); conditions: non-competitive displacement of [35S]-TBPS; ± standard error of the mean
# Experimental: The IC50 values for the compounds of the examples as non-competitive displacers of [^35S]-TBPS from the picrotoxin binding site on GABAA receptors are reported in Table 1.
# Results presented are from duplicate experiments performed in triplicate. Error limits are calculated as standard error of the mean. Methods used are known in the art (see, e.g., Jiang, et al., Neurosteroid analogues. 9. Conformationally constrained pregnanes: structure-activity studies of 13,24-cyclo-18,21-dinorcholane analogues of the GABA modulatory and anesthetic steroids (3α,5α)- and (3α,5β)-3-hydroxypregnan-20-one. J. Med. Chem. 2003, 46, 5334-5348).
# [2] = molecular target: T1, rat α1β2γ2L type GABAA receptors expressed in Xenopus laevis oocytes (Rattus norvegicus, UniProt P18508+P62813+P63138, INS375LLRMFSFK); assay: Oocyte electrophysiology: potentiation of chloride currents mediated by 2 μM GABA, and direct gating; format: cell-based; conditions: ± SEM (N≥4); for ratio of currents measured in the presence/absence of added compound, 0.1 μM: 0.1 μM compound; for ratio of currents measured in the presence/absence of added compound, 0.1 μM / ratio of currents measured in the presence/absence of added compound, 1.0 μM / ratio of currents measured in the presence/absence of added compound, 10 μM: 2 μM GABA; for ratio of currents measured in the presence/absence of added compound, 1.0 μM: 1.0 μM compound; for ratio of currents measured in the presence/absence of added compound, 10 μM: 10 μM compound; for (gating) 10 μM: ratio of compound only current/GABA current: direct current gated by 10 μM compound in the absence of GABA
# T1 construct: expressed in transfected cells; host or cells: Xenopus laevis oocytes
# T1 sequence (P62813 28-455, stated change not applied): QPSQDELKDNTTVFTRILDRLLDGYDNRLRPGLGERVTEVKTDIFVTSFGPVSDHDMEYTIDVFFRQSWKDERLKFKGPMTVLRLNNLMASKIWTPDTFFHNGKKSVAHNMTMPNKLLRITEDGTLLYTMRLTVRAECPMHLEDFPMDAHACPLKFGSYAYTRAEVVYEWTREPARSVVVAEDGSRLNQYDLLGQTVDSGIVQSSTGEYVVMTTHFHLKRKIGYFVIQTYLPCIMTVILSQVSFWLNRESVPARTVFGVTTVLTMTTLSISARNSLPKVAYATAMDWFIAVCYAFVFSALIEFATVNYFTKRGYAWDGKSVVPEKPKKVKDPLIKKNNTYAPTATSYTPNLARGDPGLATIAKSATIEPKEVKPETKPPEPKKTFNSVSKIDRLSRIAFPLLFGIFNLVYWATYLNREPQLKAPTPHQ
# T1 sequence (P63138 26-474, stated change not applied): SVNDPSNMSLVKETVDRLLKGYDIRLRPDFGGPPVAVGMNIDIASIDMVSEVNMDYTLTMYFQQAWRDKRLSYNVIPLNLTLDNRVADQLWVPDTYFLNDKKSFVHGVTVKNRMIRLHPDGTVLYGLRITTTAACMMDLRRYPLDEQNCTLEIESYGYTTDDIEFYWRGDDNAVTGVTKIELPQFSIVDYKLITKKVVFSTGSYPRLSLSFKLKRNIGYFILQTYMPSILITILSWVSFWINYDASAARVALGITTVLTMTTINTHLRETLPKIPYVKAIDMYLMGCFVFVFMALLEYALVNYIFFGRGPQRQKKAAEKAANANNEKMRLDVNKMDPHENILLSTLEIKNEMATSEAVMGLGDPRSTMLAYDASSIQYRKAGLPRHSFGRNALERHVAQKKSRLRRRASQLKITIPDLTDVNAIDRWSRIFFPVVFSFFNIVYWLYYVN
# T1 sequence (P18508 with tags, fused parts or gaps INS375LLRMFSFK): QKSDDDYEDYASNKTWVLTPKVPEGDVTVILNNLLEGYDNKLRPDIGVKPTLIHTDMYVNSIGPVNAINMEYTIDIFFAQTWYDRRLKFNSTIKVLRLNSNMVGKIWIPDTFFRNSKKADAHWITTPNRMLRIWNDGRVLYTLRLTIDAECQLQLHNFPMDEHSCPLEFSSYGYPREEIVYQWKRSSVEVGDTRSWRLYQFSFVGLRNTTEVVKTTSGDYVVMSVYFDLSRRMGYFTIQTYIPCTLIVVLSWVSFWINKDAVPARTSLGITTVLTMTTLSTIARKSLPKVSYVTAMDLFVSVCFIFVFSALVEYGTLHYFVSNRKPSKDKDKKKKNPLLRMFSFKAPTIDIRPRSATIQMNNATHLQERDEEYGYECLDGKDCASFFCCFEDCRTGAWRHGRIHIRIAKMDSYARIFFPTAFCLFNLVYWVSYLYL
# Experimental: The compounds of the present disclosure were evaluated for the ability to potentiate chloride currents mediated by 2 μM GABA at rat α1β2γ2L type GABAA receptors expressed in Xenopus laevis oocytes and the results are shown in Table 2.
# The GABA concentration used for the control response was 2 μM. Each compound was evaluated on at least four different oocytes at the concentrations indicated, and the results reported are the ratio of currents measured in the presence/absence of added compound. Gating represents direct current gated by 10 μM compound in the absence of GABA, and this current is reported as the ratio of compound only current/[…] current. Error limits are calculated as standard error of the mean (N≥4). Receptor expression and whole-cell and single-channel recordings were carried out as described previously (see Jiang, et al., Neurosteroid analogues. 9. Conformationally constrained pregnanes: structure-activity studies of 13,24-cyclo-18,21-dinorcholane analogues of the GABA modulatory and anesthetic steroids (3α,5α)- and (3α,5β)-3-hydroxypregnan-20-one. J. Med. Chem. 2003, 46, 5334-5348).
# Tadpole = Tadpole loss of righting (LRR) and loss of swimming (LSR) reflexes; format: in vivo; conditions: for EC50: ± SEM; for tadpoles that lost LRR / tadpoles that lost LSR: concentration of 3 μM, number of 10 tadpoles
# Excerpt: Table 3 discloses the anesthetic effects of the compounds of the present disclosure. In particular, the anesthetic effect of the compounds of the present disclosure on Loss of Righting Reflex (LRR) and Loss of Swimming Reflex (LSR).
# Methods used are known in the art (see, e.g., Jiang, et al., Neurosteroid analogues. 9. Conformationally constrained pregnanes: structure-activity studies of 13,24-cyclo-18,21-dinorcholane analogues of the GABA modulatory and anesthetic steroids (3α,5α)- and (3α,5β)-3-hydroxypregnan-20-one. J. Med. Chem. 2003, 46, 5334-5348). Error limits are calculated as standard error of the mean (N=10 or more animals at each of five or more different concentrations).
# [3] = loss of righting reflex, read-out: Tadpole LRR EC50
# [4] = loss of swimming reflex, read-out: Tadpole LSR EC50
SMILES,melting point [°C],IC50 [1] [nM],"ratio of currents measured in the presence/absence of added compound, 0.1 μM [2]","ratio of currents measured in the presence/absence of added compound, 1.0 μM [2]","ratio of currents measured in the presence/absence of added compound, 10 μM [2]",(gating) 10 μM: ratio of compound only current/GABA current [2],EC50 (Tadpole; [3]) [nM],EC50 (Tadpole; [4]) [nM],tadpoles that lost LRR (Tadpole),tadpoles that lost LSR (Tadpole)
O=C1C[C@@H]2CC[C@@H]3[C@H](CC[C@@H]4C[C@@H](O)CC[C@H]43)[C@H]2C1,168 to 169,–,–,–,–,–,–,–,–,–
"C[C@@]12CC[C@H]3[C@@H]4CC[C@H](O)C[C@H]4CC[C@@H]3[C@H]1CCC2=O [KK-18, (3β,5β,8α,9β,10α,13α,14β)-3-Hydroxyestran-17-one]",–,627 ± 100,1.07 ± 0.05,1.64 ± 0.11,9.34 ± 1.36,0.13 ± 0.12,3200 ± 2030,> 10000,–,–
"C[C@]1(O)CC[C@]2(C)[C@H](CC[C@H]3[C@H]2CC[C@@]2(C)C(=O)CC[C@H]32)C1 [KK-23, (3β,5β,8α,9β,10α,13α,14β)-3-Hydroxy-3-methylandrostan-17-one]",183 to 185,185 ± 28,1.11 ± 0.15,3.31 ± 0.43,19.74 ± 5.64,0.09 ± 0.02,930 ± 530,2810 ± 10,–,–
"C[C@]1(O)CC[C@]2(C)[C@@H](CC[C@H]3[C@H]2CC[C@@]2(C)C(=O)CC[C@H]32)C1 [KK-26, (3β,5α,8α,9β,10α,13α,14β)-3-Hydroxy-3-methylandrostan-17-one]",–,290 ± 33,1.38 ± 0.10,5.10 ± 0.64,23.74 ± 2.88,0.49 ± 0.18,1880,5480 ± 200,–,–
"C[C@@]12CC[C@@H]3[C@H](CC[C@H]4C[C@@H](O)CC[C@]43C)[C@H]1CC(=O)C2 [KK-97, (3β,5α,8α,9β,10α,13α,14β)-3-Hydroxyandrostan-16-one]",132 to 134,112 ± 7,1.75 ± 0.24,6.15 ± 0.41,30.62 ± 2.14,0.16 ± 0.04,490 ± 110,1730 ± 30,–,–
C[C@@]12CC[C@H]3[C@@H]4CC[C@H](O)C[C@@H]4CC[C@@H]3[C@H]1CC(=O)C2 [KK-102],139 to 142,146 ± 18,1.20 ± 0.02,4.23 ± 0.24,13.91 ± 1.38,0.04 ± 0.0,1210 ± 420,5480 ± 120,–,–
C[C@@]12CC[C@H]3[C@@H]4CC[C@H](O)C[C@H]4CC[C@@H]3[C@H]1CC(=O)C2 [KK-103],160 to 162,238 ± 21,0.97 ± 0.02,2.43 ± 0.02,10.52 ± 0.61,0.02 ± 0.01,1160 ± 210,5480 ± 120,–,–
C[C@@]12CC[C@H](O)C[C@H]1CC[C@@H]1[C@H]3CC(=O)C[C@@H]3CC[C@H]12 [KK-114],174 to 177,1520,0.93 ± 0.02,1.13 ± 0.02,3.56 ± 0.15,0.01 ± 0.02,3640 ± 2170,> 10000,–,–
"CO[C@H]1[C@H]2CC[C@H]3[C@@H](CC[C@@]4(C)C(=O)CC[C@H]34)[C@]2(C)CC[C@@H]1O [KK-117, (3β,4α,5β,8α,9β,10α,13α,14β)-3-Hydroxy-4-methoxyandrostan-17-one]",215 to 218,198 ± 25,1.21 ± 0.02,3.67 ± 0.33,12.21 ± 1.26,0.05 ± 0.03,590 ± 70,2940,–,–
"CO[C@@H]1C[C@@H]2[C@H]3CC[C@@H]4C[C@@H](O)CC[C@@]4(C)[C@@H]3CC[C@@]2(C)C1 [KK-134, (3β,5β,8α,9β,10α,13α,14β,16α)-16-Methoxyandrostan-3-ol]",169 to 171,92 ± 9,1.16 ± 0.07,5.22 ± 1.09,8.27 ± 1.27,0.04 ± 0.05,–,–,10/10^a,10/10^a
"CC(=O)[C@@H]1C[C@@H]2[C@H]3CC[C@@H]4C[C@@H](O)CC[C@@]4(C)[C@@H]3CC[C@@]2(C)C1 [KK-135, (3β,5β,8α,9β,10α,13α,14β,16α)-16-Acetylandrostan-3-ol]",169 to 172,184 ± 11,1.17 ± 0.09,3.26 ± 0.31,6.21 ± 0.31,−0.04 ± 0.06,–,–,10/10^a,10/10^a
"C[C@@]12CC[C@H](O)C[C@@H]1CC[C@H]1[C@H]2CC[C@@]2(C)C=C(C#N)C[C@H]12 [KK-136, (3β,5α,8α,9β,10α,13α,14β)-3-Hydroxyandrost-16-ene-16-carbonitrile]",195 to 197,335 ± 27,0.98 ± 0.02,1.98 ± 0.14,10.04 ± 1.26,0.29 ± 0.25,480 ± 20,1730 ± 30,–,–
